Data set [1] relates to COX-2. Conditions: also, to some extent, COX-1; cited from earlier work.
In data set [2] the test system is carrageenan-induced rat paw edema. Description: Carrageenan-induced rat footpad edema model. The data set is classed as in vivo. The following applies: oral in corn oil 1 h postcarrageenan, footpad volume 2 h later.
For data set [3] the following is noted: Sprague–Dawley rats, doses higher than 2 mg/kg; ref previous studies; cited from earlier work.
A short description of data set [4]: Gastrointestinal tolerability observation in rats. The data set is classed as in vivo, rat.
Data set [5] deals with T1, mY355F (mCOX-2 mutant) (Mus musculus, UniProt Q05769, Y341F).
T1 sequence (Q05769 18-604 Y341F): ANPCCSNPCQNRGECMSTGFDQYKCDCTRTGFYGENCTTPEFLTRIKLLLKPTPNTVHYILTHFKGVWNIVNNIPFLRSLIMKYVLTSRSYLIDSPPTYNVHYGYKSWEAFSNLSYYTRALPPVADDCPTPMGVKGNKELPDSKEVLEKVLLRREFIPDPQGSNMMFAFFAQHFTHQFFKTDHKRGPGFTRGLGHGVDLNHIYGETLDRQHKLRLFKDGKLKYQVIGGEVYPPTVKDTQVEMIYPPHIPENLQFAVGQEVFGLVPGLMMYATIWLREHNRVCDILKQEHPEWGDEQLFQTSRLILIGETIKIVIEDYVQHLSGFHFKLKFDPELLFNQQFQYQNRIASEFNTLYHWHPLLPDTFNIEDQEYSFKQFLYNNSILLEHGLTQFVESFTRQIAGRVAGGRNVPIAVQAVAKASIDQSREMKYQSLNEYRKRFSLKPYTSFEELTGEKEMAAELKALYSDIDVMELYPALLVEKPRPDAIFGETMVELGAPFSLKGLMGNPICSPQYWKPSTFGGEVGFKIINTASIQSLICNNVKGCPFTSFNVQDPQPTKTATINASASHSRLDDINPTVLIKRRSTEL
Description: COX inhibition screening assay, mCOX-2 Y355F mutant. The following applies: inhibitor concentrations of up to 100 μM. Format: biochemical.

In data set [6] the target is T2, hCOX-2 (Homo sapiens, UniProt P35354).
T2 sequence (P35354 18-604): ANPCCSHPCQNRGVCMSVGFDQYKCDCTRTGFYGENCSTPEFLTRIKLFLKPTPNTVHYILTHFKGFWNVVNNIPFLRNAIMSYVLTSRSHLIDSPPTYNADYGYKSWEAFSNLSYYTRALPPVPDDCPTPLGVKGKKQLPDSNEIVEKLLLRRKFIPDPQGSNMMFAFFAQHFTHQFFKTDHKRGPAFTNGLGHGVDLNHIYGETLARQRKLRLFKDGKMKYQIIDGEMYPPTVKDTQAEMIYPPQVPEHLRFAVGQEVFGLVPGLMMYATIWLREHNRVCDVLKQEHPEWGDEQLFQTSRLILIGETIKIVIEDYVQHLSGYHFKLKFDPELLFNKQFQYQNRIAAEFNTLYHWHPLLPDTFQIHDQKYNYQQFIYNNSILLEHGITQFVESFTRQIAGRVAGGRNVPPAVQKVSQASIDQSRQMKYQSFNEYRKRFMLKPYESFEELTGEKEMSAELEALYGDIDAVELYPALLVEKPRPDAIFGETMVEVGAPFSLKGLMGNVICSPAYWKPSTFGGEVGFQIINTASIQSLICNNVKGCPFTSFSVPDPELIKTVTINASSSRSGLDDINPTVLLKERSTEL
Description: Time-dependent COX inhibition assay. The data set is classed as biochemical.

For data set [7], the target named is T3, oCOX-1 (Ovis aries, UniProt P05979).
T3 sequence (P05979 25-600): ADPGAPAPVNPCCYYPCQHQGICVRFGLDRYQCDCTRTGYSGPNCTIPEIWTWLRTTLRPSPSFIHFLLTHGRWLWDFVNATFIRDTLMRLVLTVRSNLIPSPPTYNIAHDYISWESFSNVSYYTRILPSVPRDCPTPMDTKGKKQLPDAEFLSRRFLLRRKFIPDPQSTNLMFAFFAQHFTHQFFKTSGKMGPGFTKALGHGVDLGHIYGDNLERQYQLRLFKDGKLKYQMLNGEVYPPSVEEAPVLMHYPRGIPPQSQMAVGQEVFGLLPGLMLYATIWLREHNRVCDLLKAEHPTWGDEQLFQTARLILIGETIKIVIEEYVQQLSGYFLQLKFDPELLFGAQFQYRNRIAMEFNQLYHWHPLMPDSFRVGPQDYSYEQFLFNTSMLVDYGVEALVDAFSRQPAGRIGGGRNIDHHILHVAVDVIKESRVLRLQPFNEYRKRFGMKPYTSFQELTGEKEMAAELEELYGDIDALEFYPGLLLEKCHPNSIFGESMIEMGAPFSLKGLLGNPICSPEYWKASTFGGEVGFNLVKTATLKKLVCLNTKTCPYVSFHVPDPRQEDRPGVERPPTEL
Description: COX inhibition screening assay. The data set is classed as biochemical, ovine.

Data set [8] deals with T4, mV523I (mCOX-2 mutant) (Mus musculus, UniProt Q05769, V509I).
T4 sequence (Q05769 18-604 V509I): T1 sequence (Q05769 18-604 Y341F) with F324Y, V492I
The data set is described as follows: COX inhibition screening assay, mCOX-2 V523I mutant. Format: biochemical.

The target of data set [9] is T5, mR120A (mCOX-2 mutant) (Mus musculus, UniProt Q05769, R106A).
T5 sequence (Q05769 18-604 R106A): T1 sequence (Q05769 18-604 Y341F) with R89A, F324Y
The data set is described as follows: COX inhibition screening assay, mCOX-2 R120A mutant. Format: biochemical. The following applies: inhibitor concentrations of up to 100 μM.

Structures are written as SMILES. Substitutions are numbered along the chain they refer to.

On to `COc1ccc2c(c1)c(CC(=O)O)cn2C(=O)c1ccc(Cl)cc1` [des-methyl derivative], for which the “COX-2 inhibition (type)” value in data set [1] was “weak, reversible inhibitor”.
In the case of `COc1ccc2c(c1)c(CC(=O)O)c(C)n2C(=O)c1ccc(Cl)cc1` [indomethacin, 2-(1-(4-chlorobenzoyl)-5-methoxy-2′-methyl-1H-indol-3-yl)ethanoic acid, reference compound], the “EC50, anti-inflammatory activity” value in [2] was determined as 1.0 mg/kg. Also, in data set [3], the “gastric toxicity at higher doses” value was “substantial gastric erosion and bleeding”.
What is called IC50 is the concentration that inhibits the measured activity by half. The low end stands for greater potency, the high end for weaker potency. As to `COc1ccc2c(c1)c(CC(=O)O)c(C(F)(F)F)n2C(=O)c1ccc(Cl)cc1` [CF3–indomethacin, 2-(1-(4-chlorobenzoyl)-5-methoxy-2′-trifluoromethyl-1H-indol-3-yl)ethanoic acid], in [2], the “EC50, anti-inflammatory activity” value is reported as 1.7 mg/kg. The gastrointestinal bleeding result in data set [4] (rat, oral, tested up to 10 mg/kg) is “no evidence of gastrointestinal bleeding”. For the same molecule, in data set [4] (treated rats maintained overnight), the “overnight observation after testing” value is listed as “no passage of blood from the gastrointestinal tract was observed”. For the same molecule, the “inhibition of Tyr355 to Phe mutant of COX-2” value in data set [5] is listed as “unable to inhibit”. In data set [6], the “KI for initial binding to COX-2, fold lower than for indomethacin” value is recorded as “approximately 9 fold”; the Ki was 1500 ± 260 nM; the “k2, fold slower than for indomethacin” value worked out at 3 fold; the “k2/KI, fold greater than for indomethacin” value is “approximately 3 fold”. For the same molecule, the “forward rate constant (k2)” value in data set [6] (wild-type hCOX-2) is 0.020 ± 0.001 s^–1. Also, the IC50 in data set [7] was above 100000 nM. Moreover, the “effect on oCOX-1” value in data set [7] (up to very high inhibitor concentrations (100 μM)) is “no appreciable effect”. Besides, the IC50 in data set [8] is above 4000 nM. Further, the “inhibition of Arg-120 to Ala mutant of COX-2” value in [9] is recorded as “unable to inhibit”.

These data come from publication PMC3654564 (ACS Medicinal Chemistry Letters, 2013).
